The target in the assay is Axl phosphorylation in 293MSR-AxlWT6 cells (Homo sapiens (Human), UniProt P30530). Kind of assay: Cellular Axl phosphorylation ELISA assay (Gas6-stimulated 293MSR-AxlWT6 cells). In kind it is cell-based. To be noted: Table 4A, read-out: CELL AXL IC50. How it is done:
Cellular Axl Phosphorylation ELISA Assay
After 6-7 hrs in tissue culture incubator at 37° C. 5% CO2, medium was removed, serum-free medium was added (with 0.04% bovine serum albumin) and plates were returned to incubator where they remained overnight. […] Media was then removed and lysis buffer was added to wells and shaken at 4° C. for 30 min to generate protein lysates. Subsequently, phosphorylation of Axl was assessed by a sandwich ELISA method using a DuoSet IC Human Phospho-Axl ELISA assay kit (R&D System), an immobilized mouse anti-human Axl antibody and an anti-phospho-tyrosine-HRP antibody as a detection antibody. Antibody-coated plates were (a) incubated in presence of protein lysates at room temperature for 2 hrs, (b) washed seven times in 0.1% Tween 20 in PBS, (c) incubated with secondary antibody (a horseradish peroxidase-conjugated […]) for 2 hrs, (d) washed seven times again, (e) TMB peroxidase substrate (Bio-Rad) was added to initiate a colorimetric reaction and stopped by adding 0.2 N H2SO4, and (f) measured at OD 450 nm using a spectrophotometer. IC50 values were calculated by concentration-response curve fitting using a four-parameter analytic method and reported in μM.
For Table 4B, IC50 values were calculated by concentration-response curve fitting using a four-parameter analytic method and reported in nM.
In general terms: In an ELISA, binding on a coated surface is turned into a signal by an enzyme label.

One may read the IC50 as the midpoint of a concentration-inhibition curve.

Sequence of Axl phosphorylation in 293MSR-AxlWT6 cells (P30530 26-894): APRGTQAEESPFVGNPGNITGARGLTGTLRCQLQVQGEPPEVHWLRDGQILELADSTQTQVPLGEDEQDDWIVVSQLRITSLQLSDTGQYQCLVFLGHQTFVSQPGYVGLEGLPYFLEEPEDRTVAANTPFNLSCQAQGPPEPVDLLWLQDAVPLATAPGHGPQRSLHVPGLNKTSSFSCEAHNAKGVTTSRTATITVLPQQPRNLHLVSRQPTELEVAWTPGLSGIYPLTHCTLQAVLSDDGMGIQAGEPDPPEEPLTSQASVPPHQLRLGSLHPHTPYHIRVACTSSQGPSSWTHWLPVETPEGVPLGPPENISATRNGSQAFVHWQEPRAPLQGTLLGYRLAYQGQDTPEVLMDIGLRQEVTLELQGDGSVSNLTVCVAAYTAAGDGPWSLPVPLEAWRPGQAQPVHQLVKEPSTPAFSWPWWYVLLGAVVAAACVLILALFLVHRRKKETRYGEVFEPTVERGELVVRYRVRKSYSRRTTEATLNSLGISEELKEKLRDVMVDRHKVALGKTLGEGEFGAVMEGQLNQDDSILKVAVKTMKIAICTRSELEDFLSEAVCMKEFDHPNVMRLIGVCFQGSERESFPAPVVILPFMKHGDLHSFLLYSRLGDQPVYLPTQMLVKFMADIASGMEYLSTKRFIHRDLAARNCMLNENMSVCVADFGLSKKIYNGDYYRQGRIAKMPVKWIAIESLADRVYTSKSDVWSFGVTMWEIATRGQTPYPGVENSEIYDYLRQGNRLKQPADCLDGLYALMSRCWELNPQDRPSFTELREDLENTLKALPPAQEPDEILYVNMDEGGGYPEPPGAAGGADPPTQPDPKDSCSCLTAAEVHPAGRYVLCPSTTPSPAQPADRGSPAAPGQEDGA

Take `CCOc1nc(C(=O)NC23CC(C2)C3)cc(N2CCC(c3nc(C(N)=O)ccc3OCCN(C)C)CC2)n1` [Example 41, N-(bicyclo[1.1.1]pent-1-yl)-6-(4-{6-carbamoyl-3-[2-(dimethylamino)ethoxy]pyridin-2-yl}piperidin-1-yl)-2-ethoxypyrimidine-4-carboxamide]: the IC50 came out at 124 nM. With `C[C@H](CO)NC(=O)c1cc(N2CCC(c3n[nH]c4ncccc34)CC2)nc(OC[C@H]2C[C@H]2C#N)n1` [Example 43, 2-{[(1S,2R)-2-cyanocyclopropyl]methoxy}-N-[(2R)-1-hydroxypropan-2-yl]-6-[4-(1H-pyrazolo[3,4-b]pyridin-3-yl)piperidin-1-yl]pyrimidine-4-carboxamide] the figure was 131 nM. To `CCNC(=O)c1cc(N2CCC(COc3cc(-c4cnn(C)c4)cnc3N)CC2)nc(OCC(C)O)n1` (stereo not drawn) [Example 45, 6-[4-({[2-amino-5-(1-methyl-1H-pyrazol-4-yl)pyridin-3-yl]oxy}methyl)piperidin-1-yl]-N-ethyl-2-(2-hydroxypropoxy) pyrimidine-4-carboxamide] belongs 235 nM; to `C[C@H](CO)NC(=O)c1cc(N2CCC(c3n[nH]c4ncccc34)CC2)nc(OCC2CC(F)(F)C2)n1` [Example 47, 2-[(3,3-difluoro-cyclobutyl)methoxy]-N-[(2R)-1-hydroxypropan-2-yl]-6-[4-(1H-pyrazolo[3,4-b]pyridin-3-yl)piperidin-1-yl]pyrimidine-4-carboxamide], 3.84 nM. To `CC(C)(C)NC(=O)c1cc(N2CCC(c3n[nH]c4ncncc34)CC2)nc(OC[C@H]2C[C@H]2C#N)n1` [Example 48, N-tert-butyl-2-{[(1S,2R)-2-cyanocyclopropyl]methoxy}-6-[4-(1H-pyrazolo[3,4-d]pyrimidin-3-yl)piperidin-1-yl]pyrimidine-4-carboxamide] belongs 38.1 nM; to `C[C@H](CO)NC(=O)c1cc(N2CCC(c3c[nH]c4ncccc34)CC2)nc(OC[C@H]2CCO2)n1` [Example 50, N-[(2R)-1-hydroxypropan-2-yl]-2-[(2R)-oxetan-2-ylmethoxy]-6-[4-(1H-pyrrolo[2,3-b]pyridin-3-yl)piperidin-1-yl]pyrimidine-4-carboxamide], 15.5 nM. As to `C[C@H](CO)NC(=O)c1cc(N2CCC(c3c[nH]c4ncccc34)CC2)nc(OC[C@H]2C[C@H]2C#N)n1` [Example 51, 2-{[(1S,2R)-2-cyanocyclopropyl]methoxy}-N-[(2R)-1-hydroxypropan-2-yl]-6-[4-(1H-pyrrolo[2,3-b]pyridin-3-yl)piperidin-1-yl]pyrimidine-4-carboxamide], the IC50 amounted to 7.89 nM. For the compound `COC[C@@H](C)Oc1nc(C(=O)NC23CC(C2)C3)nc(N2CCC(c3ccc(N)c(C(N)=O)n3)CC2)n1` [Example 54, 4-[4-(5-amino-6-carbamoylpyridin-2-yl)piperidin-1-yl]-N-(bicyclo[1.1.1]pent-1-yl)-6-{[(2R)-1-methoxypropan-2-yl]oxy}-1,3,5-triazine-2-carboxamide], the IC50 came to 5.27 nM.

On to `COC[C@@H](C)Oc1nc(C(=O)NCC2CC2)nc(N2CCC(c3ccc(N)c(C(N)=O)n3)CC2)n1` [Example 58, 4-[4-(5-amino-6-carbamoylpyridin-2-yl)piperidin-1-yl]-N-(cyclo-propylmethyl)-6-{[(2R)-1-methoxypropan-2-yl]oxy}-1,3,5-triazine-2-carboxamide], for which the 50% inhibitory concentration (IC50) turned out to be 23.8 nM. With `N#CC1(COc2nc(C(=O)NC34CC(C3)C4)nc(N3CCC(c4n[nH]c5ncccc45)CC3)n2)CC1` [Example 59, N-(bicyclo[1.1.1]pent-1-yl)-4-[(1-cyanocyclopropyl)methoxy]-6-[4-(1H-pyrazolo[3,4-b]pyridin-3-yl)piperidin-1-yl]-1,3,5-triazine-2-carboxamide] the figure was 2.74 nM. Regarding `N#C[C@@H]1C[C@@H]1COc1nc(C(=O)NC(CCO)C(F)(F)F)cc(N2CCC(COc3cncnc3N)CC2)n1` (stereo partly drawn) [Example 63, 6-(4-{[(4-aminopyrimidin-5-yl)oxy]methyl}piperidin-1-yl)-2-{[(1S,2R)-2-cyanocyclopropyl]methoxy}-N-(1,1,1-trifluoro-4-hydroxybutan-2-yl)pyrimidine-4-carboxamide], the IC50 amounted to 455 nM. To `N#C[C@@H]1C[C@@H]1COc1nc(C(=O)NC23CC(C2)C3)cc(N2CCC(c3n[nH]c4nccc(OCCO)c34)CC2)n1` [Example 65, N-(bicyclo[1.1.1]pent-1-yl)-2-{[(1S,2R)-2-cyanocyclopropyl]methoxy}-6-{4-[4-(2-hydroxyethoxy)-1H-pyrazolo[3,4-b]pyridin-3-yl]piperidin-1-yl}pyrimidine-4-carboxamide] belongs 1.86 nM; to `N#C[C@@H]1C[C@@H]1COc1nc(C(=O)NC23CC(C2)C3)nc(N2CCC(COc3cncnc3N)CC2)n1` [Example 66, 4-(4-{[(4-aminopyrimidin-5-yl)oxy]methyl}piperidin-1-yl)-N-(bicyclo[1.1.1]pent-1-yl)-6-{[(1S,2R)-2-cyanocyclopropyl]methoxy}-1,3,5-triazine-2-carboxamide], 61.8 nM; to `CS(=O)(=O)COc1ccnc2[nH]nc(C3CCN(c4cc(C(=O)NC56CC(C5)C6)nc(OC[C@H]5C[C@H]5C#N)n4)CC3)c12` [Example 67, N-(bicyclo[1.1.1]pent-1-yl)-2-{[(1S,2R)-2-cyanocyclopropyl]methoxy}-6-(4-{4-[(methylsulfonyl)methoxy]-1H-pyrazolo[3,4-b]pyridin-3-yl}piperidin-1-yl)pyrimidine-4-carboxamide], 18.7 nM. With `CCNC(=O)c1cc(N2CCC(COc3cc(-c4cn(C)cn4)cnc3N)CC2)nc(O[C@H](C)COC)n1` [Example 68, 6-[4-({[2-amino-5-(1-methyl-1H-imidazol-4-yl)pyridin-3-yl]oxy}methyl)piperidin-1-yl]-N-ethyl-2-{[(2R)-1-methoxypropan-2-yl]oxy}pyrimidine-4-carboxamide] the figure was 2.94 nM. With `C[C@H](CO)Oc1nc(C(=O)NC23CC(C2)C3)cc(N2CCC(c3n[nH]c4ncccc34)CC2)n1` [Example 69, N-(bicyclo[1.1.1]pent-1-yl)-2-{[(2R)-1-hydroxypropan-2-yl]oxy}-6-[4-(1H-pyrazolo[3,4-b]pyridin-3-yl)piperidin-1-yl]pyrimidine-4-carboxamide] the figure was 228 nM. In the case of `C[C@@H](O)COc1nc(C(=O)NC23CC(C2)C3)cc(N2CCC(c3n[nH]c4ncccc34)CC2)n1` [Example 70, N-(bicyclo[1.1.1]pent-1-yl)-2-[(2R)-2-hydroxypropoxy]-6-[4-(1H-pyrazolo[3,4-b]pyridin-3-yl)piperidin-1-yl]pyrimidine-4-carboxamide], the half-maximal inhibitory concentration (IC50) is 40.8 nM. With `C[C@H](CO)NC(=O)c1cc(N2CCC(c3n[nH]c4ncccc34)CC2)nc(OCC2CC2)n1` [Example 72, 2-(cyclopropyl-methoxy)-N-[(2R)-1-hydroxypropan-2-yl]-6-[4-(1H-pyrazolo[3,4-b]pyridin-3-yl)piperidin-1-yl]pyrimidine-4-carboxamide] the figure was 4.31 nM; with `CS(=O)(=O)COc1cnc2[nH]nc(C3CCN(c4cc(C(=O)NC56CC(C5)C6)nc(OC[C@H]5C[C@H]5C#N)n4)CC3)c2c1` [Example 77, N-(bicyclo[1.1.1]pent-1-yl)-2-{[(1S,2R)-2-cyanocyclopropyl]methoxy}-6-(4-{5-[(methylsulfonyl)methoxy]-1H-pyrazolo[3,4-b]pyridin-3-yl}piperidin-1-yl)pyrimidine-4-carboxamide], 42.8 nM. With `N#C[C@@H]1C[C@@H]1COc1nc(C(=O)NC23CC(C2)C3)cc(N2CCC(c3n[nH]c4ncc(OCCO)cc34)CC2)n1` [Example 81, N-(bicyclo[1.1.1]pent-1-yl)-2-{[(1S,2R)-2-cyanocyclopropyl]methoxy}-6-{4-[5-(2-hydroxyethoxy)-1H-pyrazolo[3,4-b]pyridin-3-yl]piperidin-1-yl}pyrimidine-4-carboxamide] the figure was 5.21 nM. With `CCNC(=O)c1cc(N2CCC(COc3cc(-c4cnn(CCO)c4)cnc3N)CC2)nc(O[C@H](C)COC)n1` [Example 86, 6-{4-[({2-amino-5-[1-(2-hydroxyethyl)-1H-pyrazol-4-yl]pyridin-3-yl}oxy)methyl]piperidin-1-yl}-N-ethyl-2-{[(2R)-1-methoxypropan-2-yl]oxy} pyrimidine-4-carboxamide] the figure was 16.7 nM.

For `N#C[C@@H]1C[C@@H]1COc1nc(C(=O)NCC2CC2)nc(N2CCC(c3ccc(N)c(C(N)=O)n3)CC2)n1` [Example 87, 4-[4-(5-amino-6-carbamoylpyridin-2-yl)piperidin-1-yl]-6-{[(1S,2R)-2-cyanocyclopropyl]methoxy}-N-(cyclopropyl-methyl)-1,3,5-triazine-2-carboxamide], the IC50 came out at 66 nM.

Turning to `N#C[C@@H]1C[C@@H]1COc1nc(C(=O)NCC(F)(F)F)nc(N2CCC(c3ccc(N)c(C(N)=O)n3)CC2)n1` [Example 89, 4-[4-(5-amino-6-carbamoylpyridin-2-yl)piperidin-1-yl]-6-{[(1S,2R)-2-cyanocyclopropyl]methoxy}-N-(2,2,2-trifluoroethyl)-1,3,5-triazine-2-carboxamide], the IC50 came to 134 nM.

As for `N#CC1(COc2nc(C(=O)NC34CC(C3)C4)nc(N3CCC(COc4cccnc4N)CC3)n2)CC1` [Example 90, 4-(4-{[(2-aminopyridin-3-yl)oxy]methyl}piperidin-1-yl)-N-(bicyclo[1.1.1]pent-1-yl)-6-[(1-cyanocyclopropyl)methoxy]-1,3,5-triazine-2-carboxamide], the IC50 was found to be 6.98 nM.

These data come from patent publication US9593097B2, “Axl inhibitors” (Pfizer Inc., priority 2014, dated 2017).
